Assays:
Melanocortin receptor 3 = Melanocortin receptor 3 (Homo sapiens, UniProt P41968); type: cell membranes, HEK293, Membrane; conditions: hek293; note: in other assays of this panel Not Active means under 50% inhibition at 10 µM
Melanocortin receptor 5 = Melanocortin receptor 5 (Homo sapiens, UniProt P33032); type: cell membranes, HEK293, Membrane; conditions: hek293; note: in other assays of this panel Not Active means under 50% inhibition at 10 µM
Acetylcholinesterase = Acetylcholinesterase (Homo sapiens, UniProt P22303); experiment: DRUGMATRIX: Acetylcholinesterase enzyme inhibition (substrate: acetylthiocholine); type: cell-based, HEK293; conditions: hek293; Not Active = under 50% inhibition at 10 µM
Adenosine receptor A1 = target: T1, Adenosine receptor A1 (Homo sapiens, UniProt P30542); type: cell membranes, CHO, Membrane; conditions: cho;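 note: radioligand binding assay at the adenosine A1 receptor, with DPCPX serving as the labelled ligand; in other assays of this panel Not Active means under 50% inhibition at 10 µM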
T1 sequence (P30542 whole entry): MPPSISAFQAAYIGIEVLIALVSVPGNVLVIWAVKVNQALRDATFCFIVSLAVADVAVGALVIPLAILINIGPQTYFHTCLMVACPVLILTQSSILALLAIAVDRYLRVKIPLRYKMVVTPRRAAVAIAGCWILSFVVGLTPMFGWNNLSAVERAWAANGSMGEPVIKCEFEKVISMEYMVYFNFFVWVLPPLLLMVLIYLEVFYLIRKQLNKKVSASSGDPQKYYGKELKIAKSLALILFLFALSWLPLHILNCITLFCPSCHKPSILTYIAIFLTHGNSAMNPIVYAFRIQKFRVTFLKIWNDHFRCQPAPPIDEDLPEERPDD

Cytochrome P450 2A6 = target: T2, Cytochrome P450 2A6 (Homo sapiens, UniProt P11509); conditions: bti-tn-5b1-4; note: in other assays of this panel Not Active means under 50% inhibition at 10 µM
T2 sequence (P11509 whole entry): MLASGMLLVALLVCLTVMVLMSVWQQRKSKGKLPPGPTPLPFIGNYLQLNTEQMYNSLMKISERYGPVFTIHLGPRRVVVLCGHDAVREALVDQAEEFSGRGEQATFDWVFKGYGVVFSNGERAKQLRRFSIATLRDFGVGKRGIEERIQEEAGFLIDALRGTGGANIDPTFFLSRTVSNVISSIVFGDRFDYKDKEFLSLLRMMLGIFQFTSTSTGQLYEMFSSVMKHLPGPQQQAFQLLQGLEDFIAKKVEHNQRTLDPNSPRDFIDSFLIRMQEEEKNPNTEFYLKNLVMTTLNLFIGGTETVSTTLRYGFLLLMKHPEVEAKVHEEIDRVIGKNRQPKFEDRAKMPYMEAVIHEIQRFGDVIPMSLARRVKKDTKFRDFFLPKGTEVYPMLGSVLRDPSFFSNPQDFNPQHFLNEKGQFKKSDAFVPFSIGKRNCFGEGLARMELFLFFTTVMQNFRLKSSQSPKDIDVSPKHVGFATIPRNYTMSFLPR

Cytochrome P450 2C9 = Cytochrome P450 2C9 (Homo sapiens, UniProt P11712); conditions: bti-tn-5b1-4; note: in other assays of this panel Not Active means under 50% inhibition at 10 µM
Cytochrome P450 2C9, sequence (P11712 whole entry): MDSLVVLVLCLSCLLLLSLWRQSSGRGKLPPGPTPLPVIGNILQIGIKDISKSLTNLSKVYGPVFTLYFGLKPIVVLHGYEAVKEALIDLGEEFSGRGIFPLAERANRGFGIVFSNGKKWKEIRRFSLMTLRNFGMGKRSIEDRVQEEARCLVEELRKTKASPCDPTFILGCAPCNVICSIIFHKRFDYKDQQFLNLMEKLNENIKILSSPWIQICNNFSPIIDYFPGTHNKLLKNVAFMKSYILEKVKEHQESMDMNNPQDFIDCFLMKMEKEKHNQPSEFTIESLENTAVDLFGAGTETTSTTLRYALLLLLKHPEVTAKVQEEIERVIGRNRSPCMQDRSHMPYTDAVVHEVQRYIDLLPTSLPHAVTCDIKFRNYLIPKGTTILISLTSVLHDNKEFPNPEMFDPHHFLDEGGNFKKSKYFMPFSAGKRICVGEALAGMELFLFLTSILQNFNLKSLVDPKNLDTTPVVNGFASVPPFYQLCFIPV

Melanocortin receptor 3, sequence (P41968 whole entry): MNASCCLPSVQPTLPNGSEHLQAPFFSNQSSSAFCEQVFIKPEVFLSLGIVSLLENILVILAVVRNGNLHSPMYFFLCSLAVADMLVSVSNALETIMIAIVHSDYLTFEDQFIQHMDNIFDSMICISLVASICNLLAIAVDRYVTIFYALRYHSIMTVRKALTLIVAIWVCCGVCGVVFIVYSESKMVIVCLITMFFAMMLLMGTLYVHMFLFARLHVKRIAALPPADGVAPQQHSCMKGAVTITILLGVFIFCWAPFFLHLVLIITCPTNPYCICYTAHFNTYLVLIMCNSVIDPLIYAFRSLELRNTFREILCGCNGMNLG
Melanocortin receptor 5, sequence (P33032 whole entry): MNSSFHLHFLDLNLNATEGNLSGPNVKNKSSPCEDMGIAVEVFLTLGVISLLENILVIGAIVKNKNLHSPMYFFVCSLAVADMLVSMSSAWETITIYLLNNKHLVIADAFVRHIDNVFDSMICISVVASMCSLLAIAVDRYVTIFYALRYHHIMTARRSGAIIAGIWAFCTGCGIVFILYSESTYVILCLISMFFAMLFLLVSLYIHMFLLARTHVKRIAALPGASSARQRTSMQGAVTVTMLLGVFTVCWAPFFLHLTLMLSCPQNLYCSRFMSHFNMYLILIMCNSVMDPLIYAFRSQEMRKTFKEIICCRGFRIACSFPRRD
Acetylcholinesterase, sequence (P22303 whole entry): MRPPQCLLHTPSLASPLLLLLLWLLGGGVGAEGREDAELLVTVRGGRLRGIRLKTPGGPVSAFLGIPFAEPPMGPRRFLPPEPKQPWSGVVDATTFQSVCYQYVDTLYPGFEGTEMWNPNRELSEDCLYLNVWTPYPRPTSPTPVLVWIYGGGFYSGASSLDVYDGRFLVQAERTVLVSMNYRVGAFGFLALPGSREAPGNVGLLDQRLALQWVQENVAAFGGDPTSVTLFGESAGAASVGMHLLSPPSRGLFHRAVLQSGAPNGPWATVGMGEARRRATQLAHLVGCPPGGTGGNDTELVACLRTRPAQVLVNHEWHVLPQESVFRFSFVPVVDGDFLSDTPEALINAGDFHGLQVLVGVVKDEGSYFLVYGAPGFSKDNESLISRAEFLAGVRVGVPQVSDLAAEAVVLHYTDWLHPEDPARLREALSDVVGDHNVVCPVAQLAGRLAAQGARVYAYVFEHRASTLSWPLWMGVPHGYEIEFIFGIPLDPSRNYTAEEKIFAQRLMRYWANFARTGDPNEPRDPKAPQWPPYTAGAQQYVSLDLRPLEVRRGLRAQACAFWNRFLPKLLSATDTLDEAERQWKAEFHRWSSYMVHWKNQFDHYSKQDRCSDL

O=C(c1ccccc1C(F)(F)F)N1CCC(Cc2ccccc2)CC1
Not Active: IC50 (Melanocortin receptor 3) | IC50 (Melanocortin receptor 5) | IC50 (Acetylcholinesterase) | IC50 (Adenosine receptor A1) | IC50 (Cytochrome P450 2A6) | Ki (Cytochrome P450 2A6)

O=C/C=C/c1ccccc1
Not Active: IC50 (Melanocortin receptor 3) | IC50 (Melanocortin receptor 5) | IC50 (Acetylcholinesterase) | IC50 (Adenosine receptor A1) | IC50 (Cytochrome P450 2A6) | Ki (Cytochrome P450 2A6) | IC50 (Cytochrome P450 2C9) | Ki (Cytochrome P450 2C9)

Nc1ccc2c3c(cccc13)C(=O)NC2=O
Not Active: IC50 (Melanocortin receptor 3) | IC50 (Melanocortin receptor 5) | IC50 (Acetylcholinesterase) | IC50 (Adenosine receptor A1) | IC50 (Cytochrome P450 2A6) | Ki (Cytochrome P450 2A6) | IC50 (Cytochrome P450 2C9) | Ki (Cytochrome P450 2C9)

COc1ccc(C(=O)N2CCCC2=O)cc1
Not Active: IC50 (Melanocortin receptor 3) | IC50 (Melanocortin receptor 5) | IC50 (Acetylcholinesterase) | IC50 (Adenosine receptor A1) | IC50 (Cytochrome P450 2A6) | Ki (Cytochrome P450 2A6) | IC50 (Cytochrome P450 2C9) | Ki (Cytochrome P450 2C9)

O=c1cnn([C@@H]2O[C@H](CO)[C@@H](O)[C@H]2O)c(=O)[nH]1 [6-AZAURIDINE]
Not Active: IC50 (Melanocortin receptor 3) | IC50 (Melanocortin receptor 5) | IC50 (Acetylcholinesterase) | IC50 (Adenosine receptor A1) | IC50 (Cytochrome P450 2A6) | Ki (Cytochrome P450 2A6) | IC50 (Cytochrome P450 2C9) | Ki (Cytochrome P450 2C9)

NCCCC(O)(P(=O)(O)O)P(=O)(O)O [ALENDRONIC ACID]
Not Active: IC50 (Melanocortin receptor 3) | IC50 (Melanocortin receptor 5) | IC50 (Acetylcholinesterase) | IC50 (Adenosine receptor A1) | IC50 (Cytochrome P450 2A6) | Ki (Cytochrome P450 2A6)

Cn1c(=O)c2[nH]cnc2n(C)c1=O.Cn1c(=O)c2[nH]cnc2n(C)c1=O.NCCN [AMINOPHYLLINE]
Not Active: IC50 (Melanocortin receptor 3) | IC50 (Melanocortin receptor 5) | IC50 (Acetylcholinesterase) | IC50 (Adenosine receptor A1) | IC50 (Cytochrome P450 2A6) | Ki (Cytochrome P450 2A6)

CC1(C)S[C@@H]2[C@H](NC(=O)[C@H](N)c3ccccc3)C(=O)N2[C@H]1C(=O)O [AMPICILLIN]
Not Active: IC50 (Melanocortin receptor 3) | IC50 (Melanocortin receptor 5) | IC50 (Acetylcholinesterase) | IC50 (Adenosine receptor A1) | IC50 (Cytochrome P450 2A6) | Ki (Cytochrome P450 2A6)

CN1[C@@H]2CC[C@H]1C[C@@H](OC(=O)C(CO)c1ccccc1)C2 (stereo partly specified) [ATROPINE]
Not Active: IC50 (Melanocortin receptor 3) | IC50 (Melanocortin receptor 5) | IC50 (Acetylcholinesterase) | IC50 (Adenosine receptor A1) | IC50 (Cytochrome P450 2A6) | Ki (Cytochrome P450 2A6)

COc1ccc2cc3[n+](cc2c1OC)CCc1cc2c(cc1-3)OCO2.[Cl-] [BERBERINE CHLORIDE]
Not Active: IC50 (Melanocortin receptor 3) | IC50 (Melanocortin receptor 5) | IC50 (Adenosine receptor A1) | IC50 (Cytochrome P450 2A6) | Ki (Cytochrome P450 2A6) | IC50 (Cytochrome P450 2C9) | Ki (Cytochrome P450 2C9)

CC(=O)Oc1ccc(C(c2ccc(OC(C)=O)cc2)c2ccccn2)cc1 [BISACODYL]
Not Active: IC50 (Melanocortin receptor 3) | IC50 (Melanocortin receptor 5) | IC50 (Acetylcholinesterase) | IC50 (Adenosine receptor A1) | IC50 (Cytochrome P450 2A6) | Ki (Cytochrome P450 2A6)

C[C@@H]1C[C@H]2[C@@H]3CCC4=CC(=O)C=C[C@]4(C)[C@@]3(F)[C@@H](O)C[C@]2(C)[C@@]1(O)C(=O)CO [DEXAMETHASONE]
Not Active: IC50 (Melanocortin receptor 3) | IC50 (Melanocortin receptor 5) | IC50 (Acetylcholinesterase) | IC50 (Adenosine receptor A1) | IC50 (Cytochrome P450 2A6) | Ki (Cytochrome P450 2A6)

COc1cc([C@@H]2c3cc4c(cc3[C@@H](O[C@@H]3O[C@@H]5CO[C@@H](C)O[C@H]5[C@H](O)[C@H]3O)[C@H]3COC(=O)[C@H]23)OCO4)cc(OC)c1O [ETOPOSIDE]
Not Active: IC50 (Melanocortin receptor 3) | IC50 (Melanocortin receptor 5) | IC50 (Acetylcholinesterase) | IC50 (Adenosine receptor A1)

CC(C)(C)NC(=O)[C@H]1CC[C@H]2[C@@H]3CC[C@H]4NC(=O)C=C[C@]4(C)[C@H]3CC[C@]12C [FINASTERIDE]
Not Active: IC50 (Melanocortin receptor 3) | IC50 (Melanocortin receptor 5) | IC50 (Acetylcholinesterase) | IC50 (Adenosine receptor A1) | IC50 (Cytochrome P450 2A6) | Ki (Cytochrome P450 2A6)

COc1ccc2c3c1O[C@H]1C[C@@H](O)C=C[C@@]31CCN(C)C2 [GALANTAMINE]
Not Active: IC50 (Melanocortin receptor 3) | IC50 (Melanocortin receptor 5) | IC50 (Adenosine receptor A1)

CC(C)=CCC/C(C)=C/CO [GERANIOL]
Not Active: IC50 (Melanocortin receptor 3) | IC50 (Melanocortin receptor 5) | IC50 (Acetylcholinesterase) | IC50 (Adenosine receptor A1)

Oc1c(Cl)cc(Cl)c(Cl)c1Cc1c(O)c(Cl)cc(Cl)c1Cl [HEXACHLOROPHENE]
Not Active: IC50 (Melanocortin receptor 3) | IC50 (Melanocortin receptor 5) | IC50 (Adenosine receptor A1) | IC50 (Cytochrome P450 2A6) | Ki (Cytochrome P450 2A6) | IC50 (Cytochrome P450 2C9) | Ki (Cytochrome P450 2C9)

CC(=O)[C@@]1(O)CC[C@H]2[C@@H]3CCC4=CC(=O)CC[C@]4(C)[C@H]3CC[C@@]21C [HYDROXYPROGESTERONE]
Not Active: IC50 (Melanocortin receptor 3) | IC50 (Melanocortin receptor 5) | IC50 (Acetylcholinesterase) | IC50 (Adenosine receptor A1)

COC1=C(OC)C(=O)C(CCCCCCCCCCO)=C(C)C1=O [IDEBENONE]
Not Active: IC50 (Melanocortin receptor 3) | IC50 (Melanocortin receptor 5) | IC50 (Acetylcholinesterase) | IC50 (Adenosine receptor A1) | IC50 (Cytochrome P450 2A6) | Ki (Cytochrome P450 2A6)

O=C(N/N=C/c1ccc([N+](=O)[O-])o1)c1cc([N+](=O)[O-])cc([N+](=O)[O-])c1O [NIFURSOL]
Not Active: IC50 (Melanocortin receptor 3) | IC50 (Melanocortin receptor 5) | IC50 (Acetylcholinesterase) | IC50 (Adenosine receptor A1) | IC50 (Cytochrome P450 2A6) | Ki (Cytochrome P450 2A6)

CC(C)NCC(O)COc1cccc2[nH]ccc12 (stereo unspecified) [PINDOLOL]
Not Active: IC50 (Melanocortin receptor 3) | IC50 (Melanocortin receptor 5) | IC50 (Acetylcholinesterase) | IC50 (Adenosine receptor A1)

CCCNCC(O)COc1ccccc1C(=O)CCc1ccccc1 (stereo unspecified) [PROPAFENONE]
Not Active: IC50 (Melanocortin receptor 3) | IC50 (Melanocortin receptor 5) | IC50 (Acetylcholinesterase) | IC50 (Adenosine receptor A1) | IC50 (Cytochrome P450 2A6) | Ki (Cytochrome P450 2A6)

CC(C)c1cccc(C(C)C)c1O [PROPOFOL]
Not Active: IC50 (Melanocortin receptor 3) | IC50 (Melanocortin receptor 5) | IC50 (Acetylcholinesterase) | IC50 (Adenosine receptor A1)

C[C@@H]1O[C@@H](O[C@@H]2C=C3CC[C@@H]4[C@H](CC[C@]5(C)[C@@H](c6ccc(=O)oc6)CC[C@]45O)[C@@]3(C)CC2)[C@H](O)[C@H](O)[C@H]1O [PROSCILLARIDIN]
Not Active: IC50 (Melanocortin receptor 3) | IC50 (Melanocortin receptor 5) | IC50 (Acetylcholinesterase) | IC50 (Adenosine receptor A1) | IC50 (Cytochrome P450 2A6) | Ki (Cytochrome P450 2A6)

From ChEMBL document CHEMBL1909046, “DrugMatrix in vitro pharmacology data”
